Results on 3 molecules are retold here after patent US20230381144A1, “COMPOSITIONS AND METHODS FOR TREATMENT OF PAIN” (SYNVENTA LLC, priority 2019, published 2023).

Series [1] can be described thus: Radio-telemetry recording of core body temperature in conscious rats. The format is in vivo, Sprague-Dawley rat. The method, then:
A laparotomy is performed.
One week later, drugs tests are conducted.
FIGS. 2-4 all show an increase in core body temperature approaching and at the zero time point. Those skilled in the art would readily appreciate that this increase is an artifact in the study associated with the required handling of the animals to effectuate the dosing.

The conditions of series [2]: 0.003 mg/kg and 0.01 mg/kg, i.p.; male and female rats.
Method: Adult male and female Sprague-Dawley are implanted with radio-telemetry transmitters for monitoring blood pressure and core body temperature. Radio-telemetry transmitter (DSI HD-S10) implantation is performed under sterile condition. Long-acting buprenorphine (1 mg/kg/day, SC) is administered prior to anesthesia for postoperative pain relief. Rats are anesthetized with 5% isoflurane and kept on 2% isoflurane to maintain a stable level of anesthesia. Body temperature is maintained during surgery using a heating pad. A laparotomy is performed. The catheter tip of the telemetry transmitter is secured with a 4-0 silk suture in the abdominal cavity. The body of the telemetry transmitter is placed in the abdominal cavity and secured to the abdominal wall. Approximately 100 μL of 0.25% marcaine is applied directly to the muscle incision, and the skin is then closed with a 5-0 Vicryl absorbable suture placed subcuticularly. After recovery from anesthesia, rats are returned to their home cages placed on DSI receivers.
After one week of recovery, rats are habituated to the drug administration procedure over three separate sessions. One week later, drugs tests are conducted. […]
The conditions of series [3]: cited from earlier work.

Turning to `CC(C)(C)c1ccc2c(c1)CC[C@H]2NC(=O)Nc1cccc2[nH]ncc12` [ABT-102, 1-[(1R)-5-tert-butyl-2,3-dihydro-1H-inden-1-yl]-3-(1H-indazol-4-yl)urea], the “increase in body temperature above vehicle” value in series [1] (conscious, telemetry-instrumented rat, ABT-102 3 and 10 mg/kg, p.o., FIG. 2) was “up to 1.0 °C”.
`Cc1cccc([C@H](C)c2cnc[nH]2)c1C` [dexmedetomidine]: in series [1] (dexmedetomidine 0.003 mg/kg in combination with ABT-102, FIG. 4), the “effect on ABT-102-induced hyperthermia at the lowest tested dose” value is reported as “able to neutralize ABT-102-induced hyperthermia”. Further, in series [1] (dexmedetomidine alone, 0.003 mg/kg, FIG. 3), the “effect on core body temperature” value was “no effect”. The “effect on ABT-102-induced increase in core body temperature” value in series [1] (dexmedetomidine in combination with ABT-102 5 mg/kg, p.o., FIG. 4, p<0.0001) is “prevented hyperthermic effects”. The “effect of dexmedetomidine on its own (FIG. 5, mean arterial blood pressure)” value in series [2] is reported as “free from causing hypothermic effects”.
For the molecule `CC(=O)Nc1nc2c(Oc3cc(-c4ccc(C(F)(F)F)cc4)ncn3)cccc2s1` [AMG 517, N-(4-((6-(4-(trifluoromethyl)phenyl)pyrimidin-4-yl)oxy)benzo[d]thiazol-2-yl)acetamide], the temperature elevations entry in series [3] (Phase 1b study, reason the study was halted) was “unexpectedly high temperature elevations”. Besides, the analgesic effect result in series [3] (review of the data for the 17 subjects enrolled) is “no clear analgesic effect”.
